Laboratory results reported in patent US12152035B2, “Androgen receptor binding molecule and use thereof” (Industrial Technology Research Institute, priority 2020, dated 2024).

Assays:
Type in all cases: cell-based
CWR22RV1 cells = assay: Cytotoxicity assay (AlamarBlue, 72 hours); details: 72 hours treatment, concentration not given
Procedure: (§1) Compound stock solutions of 10 mM were prepared with 100% DMSO and shaken for 10-15 seconds. The compound stock solutions were centrifuged at 12000 rpm (13523 rcf.) for 5 minutes and record the turbidity or precipitation state with a photo snapshot. The compound stock solutions were resuspended by shaking for 10-15 seconds, and serially diluted with 100% DMSO solution to make the compound concentration to 1000 μM, then to 100, 10, and 1 μM, and then 10-fold diluted with medium to 100, 10, 1, 0.1 μM (final 10% DMSO/medium) to complete compound test sample preparation. Compound treatment was performed by adding 10 μL of compound test sample to cells in each well of a 96-well plate (final 1% DMSO/medium).
(§2) Cells (CWR22Rv1 cells or VCaP cells) were cultured in RPMI-1640 medium supplemented with 10% fetal bovine serum, 10,000 U/mL penicillin and 10,000 μg/mL streptomycin. Cells were cultured at 37° C. in a humidified 5% CO2 incubator.
(§3) Cells were seeded in a 96-well plate (1×10^4 cells/well). 10 μL of the above compound test sample was added to each well of the 96-well plate on next day. After 72 hours of compound treatment, 10 μL of AlamaBlue reagent was added to each of 96 wells and incubated for 4 hours. The fluorescence value at Ex/Em=560/590 nm was read with a microplate reader, and the cytotoxicity (%) was calculated.
(§4) According to the above method, the compounds prepared above were subjected to cytotoxicity test with CWR22RV1 cells and VCaP cells.

VCaP cells = assay: Cytotoxicity assay (AlamarBlue, 72 hours); details: 72 hours treatment, concentration not given
Procedure: as §1, §2, §3, §4

[1] = tested on: full-length androgen receptor; assay: Western blot: degradation of full-length androgen receptor in CWR22RV1 cells; details: overnight
Procedure: CWR22Rv1 cells were maintained in RPMI medium supplemented with 10% fetal bovine serum and 1% penicillin-streptomycin at 37° C. in a humidified environment with 5% CO2.
CWR22Rv1 (5×10^5 cells) were seeded in each well of a 6-well plate and incubated overnight. Before compound treatment, the medium in the wells was replaced with a new medium. Cells were treated with different concentrations of compound overnight. Subsequently, cells were harvested by adding cold PBS and scraping cells. Cells were lysed according to general procedures and Western blot assays were performed to assess the ability of compounds to degrade full-length androgen receptor or androgen receptor splice variant 7. The cells or cell lysates were kept on ice at all times.
The following reagents were used in this experiment. Phosphate buffered saline (PBS) (Hyclone, SH30028.02), fetal bovine serum (Hyclone, SH30084.23, Lot AC14563276), penicillin-streptomycin solution (Hyclone, SV30010), 0.5% Trypsin-EDTA (Gibco, 15400-054), CST Lysis Buffer (CST-9803), Halt™ Protease and Phosphatase Inhibitor (ThermoFisher, 78442), Coomassie (Bradford) Protein Assay (Coomassie (Bradford) protein assay) (ThermoFisher, 23200), androgen receptor antibody (Cell Siginaling, CST-5153S), GAPDH antibody (Cell Siginaling, CST-5174S), HRP-goat-anti-rabbit (Jackson Immuno Research, 111-035-003), skim milk, SuperSignal West Pico Maximum Sensitivity substrate (ThermoFisher, 34080).
The compound prepared above was analyzed for its ability to degrade full-length androgen receptor and androgen receptor splice variant 7 in CWR22RV1 cells by Western blotting according to the method shown in item B.3-2 above.

[2] = compound concentration 0.1 (unit not given)
[3] = compound concentration 1 (unit not given)
[4] = compound concentration 10 (unit not given)

Cc1ncsc1-c1ccc(CNC(=O)[C@H]2C[C@@H](O)CN2C(=O)[C@@H](NC(=O)C2(F)CC2)C(C)(C)C)c(OCCCCCCCOc2ccc(C3CCN(C4=Nn5c(nnc5C(F)(F)F)CC4)CC3)cc2)c1 [Compound 36, (2R,4R)-1-((S)-2-(1-fluorocyclopropane-1-carboxamido)-3,3-dimethylbutanoyl)-4-hydroxy-N-(4-(4-methylthiazol-5-yl)-2-((7-(4-(1-(3-(trifluoromethyl)-7,8-dihydro-[1,2,4]triazolo[4,3-b]pyridazin-6-yl)piperidin-4-yl)phenoxy)heptyl)oxy)benzyl)pyrrolidine-2-carboxamide]
Cytotoxicity, CWR22RV1 cells (cell viability %) (CWR22RV1 cells): +++ (<40% : +++)
Cytotoxicity, VCaP cells (cell viability %) (VCaP cells): +++ (<40% : +++)
Degradation ability for full-length androgen receptor (residual rate %) [1, 2]: − (>80%; −)
Degradation ability for full-length androgen receptor (residual rate %) [1, 3]: + (60-80%: +)
Degradation ability for full-length androgen receptor (residual rate %) [1, 4]: + (60-80%: +)

Cc1ncsc1-c1ccc(CNC(=O)[C@@H]2C[C@H](O)CN2C(=O)[C@@H](NC(=O)COCCCCOc2ccc(C3CCN(c4ccc5nnc(C(F)(F)F)n5n4)CC3)cc2)C(C)(C)C)cc1 [Compound 37, (2S,4S)-1-((S)-3,3-dimethyl-2-(2-(4-(4-(1-(3-(trifluoromethyl)-[1,2,4]triazolo[4,3-b]pyridazin-6-yl)piperidin-4-yl)phenoxy)butoxy)acetamido)butanoyl)-4-hydroxy-N-(4-(4-methylthiazol-5-yl)benzyl)pyrrolidine-2-carboxamide]
Cytotoxicity, CWR22RV1 cells (cell viability %) (CWR22RV1 cells): +++ (<40% : +++)
Cytotoxicity, VCaP cells (cell viability %) (VCaP cells): +++ (<40% : +++)
Degradation ability for full-length androgen receptor (residual rate %) [1, 2]: − (>80%; −)
Degradation ability for full-length androgen receptor (residual rate %) [1, 3]: + (60-80%: +)
Degradation ability for full-length androgen receptor (residual rate %) [1, 4]: +++ (<40%: +++)

O=C1CCC(N2Cc3c(NC(=O)COCCCCOc4ccc(C5CCN(c6ccc7nnc(C(F)(F)F)n7n6)CC5)cc4)cccc3C2=O)C(=O)N1 (centres unmarked) [Compound 38, N-(2-(2,6-dioxopiperidin-3-yl)-1-oxoisoindolin-4-yl)-2-(4-(4-(1-(3-(trifluoromethyl)-[1,2,4]triazolo[4,3-b]pyridazin-6-yl)piperidin-4-yl)phenoxy)butoxy)acetamide]
Cytotoxicity, CWR22RV1 cells (cell viability %) (CWR22RV1 cells): +++ (<40% : +++)
Cytotoxicity, VCaP cells (cell viability %) (VCaP cells): +++ (<40% : +++)
Degradation ability for full-length androgen receptor (residual rate %) [1, 2]: ++ (40-60%: ++)
Degradation ability for full-length androgen receptor (residual rate %) [1, 3]: +++ (<40%: +++)
Degradation ability for full-length androgen receptor (residual rate %) [1, 4]: +++ (<40%: +++)

O=C1CCC(N2Cc3c(NC(=O)CCCCCCOc4ccc(C5CCN(C6=Nn7c(nnc7C(F)(F)F)CC6)CC5)cc4)cccc3C2=O)C(=O)N1 (centres unmarked) [Compound 39, N-(2-(2,6-dioxopiperidin-3-yl)-1-oxoisoindolin-4-yl)-7-(4-(1-(3-(trifluoromethyl)-7,8-dihydro-[1,2,4]triazolo[4,3-b]pyridazin-6-yl)piperidin-4-yl)phenoxy)heptanamide]
Cytotoxicity, CWR22RV1 cells (cell viability %) (CWR22RV1 cells): +++ (<40% : +++)
Cytotoxicity, VCaP cells (cell viability %) (VCaP cells): +++ (<40% : +++)
Degradation ability for full-length androgen receptor (residual rate %) [1, 2]: − (>80%; −)
Degradation ability for full-length androgen receptor (residual rate %) [1, 3]: + (60-80%: +)
Degradation ability for full-length androgen receptor (residual rate %) [1, 4]: ++ (40-60%: ++)

O=C1CCC(N2Cc3cc(C4=CCN(C(=O)COCCCCOc5ccc(C6CCN(C7=Nn8c(nnc8C(F)(F)F)CC7)CC6)cc5)CC4)ccc3C2=O)C(=O)N1 (centres unmarked) [Compound 40, 3-(1-oxo-5-(1-(2-(4-(4-(1-(3-(trifluoromethyl)-7,8-dihydro-[1,2,4]triazolo[4,3-b]pyridazin-6-yl)piperidin-4-yl)phenoxy)butoxy)acetyl)-1,2,3,6-tetrahydropyridin-4-yl)isoindolin-2-yl)piperidine-2,6-dione]
Cytotoxicity, CWR22RV1 cells (cell viability %) (CWR22RV1 cells): ++ (40-60% : ++)
Cytotoxicity, VCaP cells (cell viability %) (VCaP cells): ++ (40-60% : ++)
Degradation ability for full-length androgen receptor (residual rate %) [1, 2]: + (60-80%: +)
Degradation ability for full-length androgen receptor (residual rate %) [1, 3]: + (60-80%: +)
Degradation ability for full-length androgen receptor (residual rate %) [1, 4]: +++ (<40%: +++)

O=C1CCC(N2Cc3cc(C4CCN(C(=O)COCCCCOc5ccc(C6CCN(C7=Nn8c(nnc8C(F)(F)F)CC7)CC6)cc5)CC4)ccc3C2=O)C(=O)N1 (centres unmarked) [Compound 41, 3-(1-oxo-5-(1-(2-(4-(4-(1-(3-(trifluoromethyl)-7,8-dihydro-[1,2,4]triazolo[4,3-b]pyridazin-6-yl)piperidin-4-yl)phenoxy)butoxy)acetyl)piperidin-4-yl)isoindolin-2-yl)piperidine-2,6-dione]
Cytotoxicity, CWR22RV1 cells (cell viability %) (CWR22RV1 cells): ++ (40-60% : ++)
Cytotoxicity, VCaP cells (cell viability %) (VCaP cells): +++ (<40% : +++)
Degradation ability for full-length androgen receptor (residual rate %) [1, 2]: − (>80%; −)
Degradation ability for full-length androgen receptor (residual rate %) [1, 3]: + (60-80%: +)
Degradation ability for full-length androgen receptor (residual rate %) [1, 4]: +++ (<40%: +++)

O=C1CCC(N2Cc3cc(C#CCOCCCCOc4ccc(C5CCN(C6=Nn7c(nnc7C(F)(F)F)CC6)CC5)cc4)ccc3C2=O)C(=O)N1 (centres unmarked) [Compound 42]
Cytotoxicity, CWR22RV1 cells (cell viability %) (CWR22RV1 cells): + (60-80% : +)
Cytotoxicity, VCaP cells (cell viability %) (VCaP cells): + (60-80% : +)
Degradation ability for full-length androgen receptor (residual rate %) [1, 2]: − (>80%; −)
Degradation ability for full-length androgen receptor (residual rate %) [1, 3]: − (>80%; −)
Degradation ability for full-length androgen receptor (residual rate %) [1, 4]: + (60-80%: +)

O=C1CCC(N2C(=O)c3cccc(NCC(=O)N4CCC(N5CCC(C#Cc6ccc(C7CCN(C8=Nn9c(nnc9C(F)(F)F)CC8)CC7)cc6)CC5)CC4)c3C2=O)C(=O)N1 (centres unmarked) [Compound 43, 2-(2,6-dioxopiperidin-3-yl)-4-((2-oxo-2-(4-((4-(1-(3-(trifluoromethyl)-7,8-dihydro-[1,2,4]triazolo[4,3-b]pyridazin-6-yl)piperidin-4-yl)phenyl)ethynyl)-[1,4′-bipiperidin]-1′-yl)ethyl)amino)isoindoline-1,3-dione]
Cytotoxicity, CWR22RV1 cells (cell viability %) (CWR22RV1 cells): +++ (<40% : +++)
Cytotoxicity, VCaP cells (cell viability %) (VCaP cells): +++ (<40% : +++)
Degradation ability for full-length androgen receptor (residual rate %) [1, 2]: ++ (40-60%: ++)
Degradation ability for full-length androgen receptor (residual rate %) [1, 3]: ++ (40-60%: ++)
Degradation ability for full-length androgen receptor (residual rate %) [1, 4]: ++ (40-60%: ++)

O=C1CCC(N2C(=O)c3cccc(N4CCC(N5CCC(C#Cc6ccc(C7CCN(C8=Nn9c(nnc9C(F)(F)F)CC8)CC7)cc6)CC5)CC4)c3C2=O)C(=O)N1 (centres unmarked) [Compound 44, 2-(2,6-dioxopiperidin-3-yl)-4-(4-((4-(1-(3-(trifluoromethyl)-7,8-dihydro-[1,2,4]triazolo[4,3-b]pyridazin-6-yl)piperidin-4-yl)phenyl)ethynyl)-[1,4′-bipiperidin]-1′-yl)isoindoline-1,3-dione]
Cytotoxicity, CWR22RV1 cells (cell viability %) (CWR22RV1 cells): +++ (<40% : +++)
Cytotoxicity, VCaP cells (cell viability %) (VCaP cells): +++ (<40% : +++)
Degradation ability for full-length androgen receptor (residual rate %) [1, 2]: − (>80%; −)
Degradation ability for full-length androgen receptor (residual rate %) [1, 3]: − (>80%; −)
Degradation ability for full-length androgen receptor (residual rate %) [1, 4]: ++ (40-60%: ++)

O=C1CCC(N2C(=O)c3cccc(N4CCN(C(=O)COCCCCOc5ccc(C6CCN(C7=Nn8c(nnc8C(F)(F)F)CC7)CC6)cc5)CC4)c3C2=O)C(=O)N1 (centres unmarked) [Compound 45, 2-(2,6-dioxopiperidin-3-yl)-4-(4-(2-(4-(4-(1-(3-(trifluoromethyl)-7,8-dihydro-[1,2,4]triazolo[4,3-b]pyridazin-6-yl)piperidin-4-yl)phenoxy)butoxy)acetyl)piperazin-1-yl)isoindoline-1,3-dione]
Cytotoxicity, CWR22RV1 cells (cell viability %) (CWR22RV1 cells): + (60-80% : +)
Cytotoxicity, VCaP cells (cell viability %) (VCaP cells): +++ (<40% : +++)
Degradation ability for full-length androgen receptor (residual rate %) [1, 2]: − (>80%; −)
Degradation ability for full-length androgen receptor (residual rate %) [1, 3]: ++ (40-60%: ++)
Degradation ability for full-length androgen receptor (residual rate %) [1, 4]: ++ (40-60%: ++)
